This is an account of results in patent publication US20220274979A1 (Bayer Pharma Aktiengesellschaft, priority 2018, published 2022).

Assay [1] has as its target T1, hSOS1 (hSOS1-mediated loading of hK-RasG12C-GDP) (Homo sapiens, UniProt Q07889).
T1 construct: hSOS1 (amino acid 564-1049); made in house; host or cells: E. coli BL21 (DE3)
T1 sequence (Q07889 with tags, fused parts or gaps): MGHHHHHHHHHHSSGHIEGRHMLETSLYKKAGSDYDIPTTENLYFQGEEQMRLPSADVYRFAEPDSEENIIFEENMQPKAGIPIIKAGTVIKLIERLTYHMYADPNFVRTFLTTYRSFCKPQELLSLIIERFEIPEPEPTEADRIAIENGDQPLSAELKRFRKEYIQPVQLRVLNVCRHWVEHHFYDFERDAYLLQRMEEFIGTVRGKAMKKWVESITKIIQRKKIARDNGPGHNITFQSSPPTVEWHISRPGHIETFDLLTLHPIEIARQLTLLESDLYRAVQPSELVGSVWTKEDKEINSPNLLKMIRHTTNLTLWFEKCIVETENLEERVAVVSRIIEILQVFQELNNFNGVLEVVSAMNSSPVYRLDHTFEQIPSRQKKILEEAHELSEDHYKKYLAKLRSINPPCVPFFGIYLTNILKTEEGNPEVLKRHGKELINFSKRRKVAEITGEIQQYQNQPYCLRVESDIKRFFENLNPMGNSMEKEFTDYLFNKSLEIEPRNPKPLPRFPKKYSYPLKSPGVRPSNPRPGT
Description: Biochemical Assay 3: hK-RasG12C activation assay by hSOS1 (loading with fluorescent GTP analog, HTRF). Particulars: no GTP. The text has this:
Biochemical Assay 3: hK-RasG12C Activation Assay by hSOS1
K-Ras is a small GTPase that can bind GDP and GTP. The guanine nucleotide exchange factor SOS1 catalyzes the activation of K-Ras by promoting the exchange of GDP to GTP. SOS1 binds to K-Ras-GDP thereby opening the GDP-binding pocket to facilitate GDP release. Rebinding of excess nucleotide leads to dissociation of the K-Ras-SOS1 intermediate complex leaving K-Ras loaded with the nucleotide.
This assay quantifies human SOS1-(hSOS1-)mediated loading of human K-Ras^G12C-GDP (hK-RasG12C-GDP) with a fluorescent GTP-analog. Detection of successful loading is achieved by measuring homogenous time-resolved fluorescence resonance energy transfer (HTRF) from antiGST-Terbium (FRET donor) bound to GST-hK-RasG12C (see below) to the loaded fluorescent GTP analog (FRET-acceptor).
The fluorescent GTP-analog EDA-GTP-Dy647P1 (2′/3′-O-(2-Aminoethyl-carbamoyl)-guanosine-5′-triphosphate labelled with Dy647P1 (Dyomics GmbH, Germany)) was synthesized by Jena Biosciences GmbH (Germany) and supplied as a 1 mM aqueous solution.
(§1) The assay buffer contained 10 mM HEPES pH 7.4 (Applichem), 150 mM NaCl (Sigma), 5 mM MgCl2 (Sigma), 1 mM DTT (Thermofisher), 0.05% BSA Fraction V, pH 7.0, (ICN Biomedicals), 0.0025% (v/v) Igepal (Sigma).
Concentrations of protein batches used were optimized to be within the linear range of the HTRF signal. A hRas working solution was prepared in assay buffer containing typically 100 nM GST-hK-RasG12C and 2 nM antiGST-Tb (Cisbio, France). A hSOS1 working solution was prepared in assay buffer containing typically 20 nM hSOS1 and 200 nM EDA-GTP-Dy647P1. An inhibitor control solution was prepared in assay buffer containing 200 nM EDA-GTP-Dy647P1 without hSOS1.
(§2) Fifty nl of a 100-fold concentrated solution of the test compound in DMSO were transferred into a black microtiter test plate (384 or 1536, Greiner Bio-One, Germany) For this, either a Hummingbird liquid handler (Digilab, Mass., USA) or an Echo acoustic system (Labcyte, Calif., USA) was used.
All steps of the assay were performed at 20° C. A volume of 2.5 μl of the hRas working solution was added to all wells of the test plate using a Multidrop dispenser (Thermo Labsystems). After 10 min. preincubation, 2.5 μl of the hSOS1 working solution were added to all wells except for those wells at the side of the test plate that were subsequently filled with 2.5 μl of the inhibitor control solution. After […] incubation the fluorescence was measured with a Pherastar (BMG, Germany) using the HTRF module (excitation 337 nm, emission 1: 620 nm, emission 2:665 nm).
(§3) IC50 values were calculated by 4-Parameter fitting using a commercial software package (Genedata Screener, Switzerland).
(Time-resolved FRET reads energy transfer from a long-lived donor to a nearby acceptor.)

Assay [2] addresses T2, hSOS1 (hSOS1-mediated nucleotide exchange of hK-RasG12C) (Homo sapiens, UniProt Q07889).
T2 construct: hSOS1 (amino acid 564-1049); made in house; host or cells: E. coli BL21 (DE3)
T2 sequence (Q07889 with tags, fused parts or gaps): T1 sequence (Q07889 with tags, fused parts or gaps)
Description: Biochemical Assay 2: hK-RasG12C activation assay by hSOS1 at high GTP concentration (HTRF nucleotide exchange). Particulars: high GTP (50 μM GTP).
Description: Biochemical Assay 2: hK-RasG12C Activation Assay by hSOS1 at High GTP Concentration
This assay quantifies human SOS1-mediated nucleotide exchange of human K-Ras^G12C (hK-RasG12C) preloaded with a fluorescent […] and in presence of an excess of free GTP. Loaded hK-RasG12C generates a high HTRF-signal by energy transfer from antiGST-Terbium (FRET donor) bound to hK-Ras to the loaded fluorescent GDP analog (FRET-acceptor). hSOS1 activity exchanges the fluorescent GDP for non-fluorescent GTP and therefore leads to a reduction of the HTRF signal.
The fluorescent GDP-analog EDA-GDP-Dy647P1 (2′/3′-O-(2-Aminoethyl-carbamoyl)-guanosine-5′-diphosphate labelled with Dy647P1 (Dyomics GmbH, Germany)) was synthesized by Jena Biosciences GmbH (Germany) and supplied as a 1 mM aqueous solution.
Concentrations of protein batches used were optimized to be within the linear range of the HTRF signal.
Addition of 20 μl 1 M MgCl2 (Sigma) to final 40 mM and store on ice. Purification into buffer (10 mM HEPES pH 7.4 (Applichem), 150 mM NaCl (Sigma), 5 mM MgCl2 (Sigma)) by use of a PD-Minitrap desalting column (GE Healthcare). Concentration of 1 ml purified hK-Ras-GDP-Dy647 is approx. 4-5 μM.
as §1
A Ras working solution was prepared in assay buffer containing typically 80 nM loaded GST-hK-RasG12C-EDA-GDP-Dy647P1 and 2 nM antiGST-Tb (Cisbio, France).
Alternatively, the inhibitor control solution was prepared by supplementing the hSOS1 working solution with 20 μM of 6,7-dimethoxy-N-[(1R)-1-(1-naphthyl)ethyl]quinazolin-4-amine which was used to calibrate the assay.
as §2
All steps of the assay were performed at 20° C. A volume of 2.5 μl of the Ras working solution was added to all wells of the test plate using a Multidrop dispenser (Thermo Labsystems). After 2 min. preincubation, 2.5 μl of the hSOS1 working solution were added to all wells except for those wells at the side of the test plate that were subsequently filled with 2.5 μl of the inhibitor control solution. After 20 min. incubation the fluorescence was measured with a Pherastar (BMG, Germany) using the HTRF module (excitation 337 nm, emission 1:620 nm, emission 2:665 nm).
as §3

Assay [3] concerns the target T3, hK-RasG12C - hSOS1 interaction (Homo sapiens, UniProt Q07889).
T3 construct: hSOS1 (amino acid 564-1049); made in house; host or cells: E. coli BL21 (DE3)
T3 sequence (Q07889 with tags, fused parts or gaps): T1 sequence (Q07889 with tags, fused parts or gaps)
Description: Biochemical Assay 1: hK-RasG12C interaction assay with hSOS1 (HTRF). It is filed as binding. As to the method:
Biochemical Assay 1: hK-RasG12C Interaction Assay with hSOS1
This assay quantifies the equilibrium interaction of human SOS1 (hSOS1) with human K-Ras^G12C (hK-RasG12C). Detection of the interaction is achieved by measuring homogenous time-resolved fluorescence resonance energy transfer (HTRF) from antiGST-Europium (FRET donor) bound to GST-K-RasG12C to anti-6His-XL665 bound to His-tagged hSOS1 (FRET-acceptor).
The assay buffer contained 5 mM HEPES pH 7.4 (Applichem), 150 mM NaCl (Sigma), 10 mM EDTA (Promega), 1 mM DTT (Thermofisher), 0.05% BSA Fraction V, pH 7.0, (ICN Biomedicals), 0.0025% (v/v) Igepal (Sigma) and 100 mM KF (FLUKA).
Concentrations of protein batches used were optimized to be within the linear range of the HTRF signal. A Ras working solution was prepared in assay buffer containing typically 10 nM GST-hK-RasG12C and 2 nM antiGST-Eu(K) (Cisbio, France). A SOS1 working solution was prepared in assay buffer containing typically 20 nM His-hSOS1 and 10 nM anti-6His-XL665 (Cisbio, France). An inhibitor control solution was prepared in assay buffer containing 10 nM anti-6His-XL665 without hSOS1.
as §2
All steps of the assay were performed at 20° C. A volume of 2.5 μl of the Ras working solution was added to all wells of the test plate using a Multidrop dispenser (Thermo Labsystems). After […] preincubation, 2.5 μl of the SOS1 working solution were added to all wells except for those wells at the side of the test plate that were subsequently filled with 2.5 μl of the inhibitor control solution. After […] incubation the fluorescence was measured with a Pherastar (BMG, Germany) using the HTRF module (excitation 337 nm, emission 1:620 nm, emission 2:665 nm).
as §3

Read-outs that look alike come from different tables or passages of the source.

With `Cc1nc(NC(C)c2ccc(-c3ccccc3CN(C)C)s2)c2cc(N3CCNC(=O)C3)ncc2n1` (centres unmarked) [Example 50, 4-(4-{[1-(5-{2-[(dimethylamino)methyl]phenyl}thiophen-2-yl)ethyl]amino}-2-methylpyrido[3,4-d]pyrimidin-6-yl)piperazin-2-one], the IC50 in assay [1] came to 54.8 nM; in assay [2] it was 48.8 nM.
Consider `CCCOc1cc2c(NC(C)c3ccc(-c4ccccc4CN(C)C)s3)nc(C)nc2cn1` (centres unmarked) [Example 65, N-[1-(5-{2-[(dimethylamino)methyl]phenyl}thiophen-2-yl)ethyl]-2-methyl-6-propoxypyrido[3,4-d]pyrimidin-4-amine], for which, in assay [2], the IC50 stood at 32.8 nM.
`Cc1nc(NC(C)c2ccc(-c3ccccc3CN(C)C)s2)c2cc(OCCN(C)C)ncc2n1` (centres unmarked) [Example 66, 6-[2-(dimethylamino)ethoxy]-N-[1-(5-{2-[(dimethylamino)methyl]phenyl}thiophen-2-yl)ethyl]-2-methylpyrido[3,4-d]pyrimidin-4-amine]: the IC50 in assay [3] (values expressed as IC50) was determined as 30.4 nM; in assay [2], 22.7 nM.
As to `CC(=O)N(c1cccc(C(=O)NC2CN(c3cc4c(NC(C)c5ccc(-c6ccccc6CN(C)C)s5)nc(C)nc4cn3)C2)c1)[C@@H]1CCN(C(=O)OC(C)(C)C)C1` (stereo partly drawn) [Example 97, tert-butyl (3R)-3-[acetyl(3-{[1-(4-{[1-(5-{2-[(dimethylamino)methyl]phenyl}-2-thienyl)-ethyl]amino}-2-methylpyrido[3,4-d]pyrimidin-6-yl)azetidin-3-yl]carbamoyl}-phenyl)amino]pyrrolidine-1-carboxylate], the IC50 in assay [3] (values expressed as IC50) was determined as 293 nM; in assay [1], 554 nM; in assay [2] it was 298 nM.
Take `CC(=O)N(c1cccc(C(=O)NC2CN(c3cc4c(NC(C)c5ccc(-c6ccccc6CN(C)C)s5)nc(C)nc4cn3)C2)c1)C1CCN(C(=O)OC(C)(C)C)CC1` (centres unmarked) [Example 98, tert-butyl 4-[acetyl(3-{[1-(4-{[1-(5-{2-[(dimethylamino)methyl]phenyl}thiophen-2-yl)ethyl]amino}-2-methylpyrido[3,4-d]pyrimidin-6-yl)azetidin-3-yl]carbamoyl}-phenyl)amino]piperidine-1-carboxylate]: the IC50 stood at 271 nM in assay [3], 620 nM in assay [1] and 428 nM in assay [2].
In the case of `Cc1nc(NC(C)c2ccc(-c3ccccc3CN(C)C)s2)c2cc(N3CC(NCc4ccccc4)C3)ncc2n1` (centres unmarked) [Example 99, 6-[3-(benzylamino)azetidin-1-yl]-N-[1-(5-{2-[(dimethylamino)methyl]phenyl}thiophen-2-yl)ethyl]-2-methylpyrido[3,4-d]pyrimidin-4-amine], the IC50 in assay [3] (values expressed as IC50) is 53.2 nM; in assay [1], 82.5 nM; in assay [2] it was 58.8 nM.
The matching figures for `Cc1nc(NC(C)c2ccc(-c3ccccc3CN(C)C)s2)c2cc(N3CC(NC(=O)N4CCS(=O)(=O)CC4)C3)ncc2n1` (centres unmarked) [Example 100, N-[1-(4-{[1-(5-{2-[(dimethylamino)methyl]phenyl}thiophen-2-yl)ethyl]amino}-2-methylpyrido[3,4-d]pyrimidin-6-yl)azetidin-3-yl]thiomorpholine-4-carboxamide 1,1-dioxide]: 85.8 nM, 156 nM and 103 nM.

Usually IC50 stands for the concentration that gives 50% inhibition.
